Assay in all cases: PDH-coupled PDHK assay (residual PDH activity, NADH absorbance at […] nm), […] ATP
Holding throughout (assay type): biochemical

Test [1] deals with T1, human PDHK1 (hPDHK1, pyruvate dehydrogenase kinase 1) (Homo sapiens, UniProt Q15118).
T1 construct: gene PDK1; recombinant, Flag-tag at the N-terminus; with PDH enzyme derived from porcine heart (PDH/PDHK complex)

Test [2] has as its target T2, human PDHK3 (hPDHK3, pyruvate dehydrogenase kinase 3) (Homo sapiens, UniProt Q15120).
T2 construct: gene PDK3; recombinant, Flag-tag at the N-terminus; with PDH enzyme derived from porcine heart (PDH/PDHK complex)

Test [3] addresses T3, human PDHK2 (hPDHK2, pyruvate dehydrogenase kinase 2) (Homo sapiens, UniProt Q15119).
T3 construct: gene PDK2; recombinant, Flag-tag at the N-terminus; with PDH enzyme derived from porcine heart (PDH/PDHK complex)

Molecules are shown by their SMILES.

T1 sequence (Q15118 29-436): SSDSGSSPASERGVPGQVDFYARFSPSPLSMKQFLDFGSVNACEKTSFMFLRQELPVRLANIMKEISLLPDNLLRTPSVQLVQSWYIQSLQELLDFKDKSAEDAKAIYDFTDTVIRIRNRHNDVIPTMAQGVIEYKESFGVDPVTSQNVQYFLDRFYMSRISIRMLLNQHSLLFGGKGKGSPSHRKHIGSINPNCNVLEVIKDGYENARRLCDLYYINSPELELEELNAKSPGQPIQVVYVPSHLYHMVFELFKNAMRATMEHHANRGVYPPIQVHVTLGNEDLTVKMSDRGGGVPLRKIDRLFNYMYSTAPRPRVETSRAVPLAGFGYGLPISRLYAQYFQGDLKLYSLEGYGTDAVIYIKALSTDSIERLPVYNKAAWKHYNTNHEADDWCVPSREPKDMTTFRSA
T2 sequence (Q15120 whole entry): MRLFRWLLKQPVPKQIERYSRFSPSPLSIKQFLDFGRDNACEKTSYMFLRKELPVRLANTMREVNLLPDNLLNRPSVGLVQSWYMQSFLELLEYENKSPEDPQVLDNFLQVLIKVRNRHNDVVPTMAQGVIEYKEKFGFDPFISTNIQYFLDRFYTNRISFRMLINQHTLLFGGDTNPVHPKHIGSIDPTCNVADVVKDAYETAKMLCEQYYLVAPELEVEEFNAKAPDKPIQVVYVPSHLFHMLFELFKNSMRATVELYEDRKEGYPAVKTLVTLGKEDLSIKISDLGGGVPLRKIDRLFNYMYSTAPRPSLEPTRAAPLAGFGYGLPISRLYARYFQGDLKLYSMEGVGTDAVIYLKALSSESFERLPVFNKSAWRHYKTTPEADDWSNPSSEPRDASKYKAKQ

For the compound `C[C@H]1CN(C(=O)c2c(F)cc(C#N)cc2F)Cc2cnc([C@@](C)(O)C(F)(F)F)n21` [Compound A], the values for the half-inhibitory concentration (IC50) in test [1], in test [2] and in test [3] were 8.17 ± 0.56 nM, 50.5 ± 3.23 nM and 5.33 ± 0.12 nM, respectively.

For the origin of these results see PMC11376040, “A novel PDHK inhibitor restored cognitive dysfunction and limited neurodegeneration without affecting amyloid pathology in 5xFAD mouse, a model of Alzheimer’s disease” (Alzheimer's Research & Therapy, 2024).
